Data taken from patent publication US20230233569A1 (Revolution Medicines, Inc., priority 2020, published 2023).

How the values were obtained:
[1] = tested on: P70S6K (Thr389) phosphorylation (mTORC1) in MDA-MB-468 cells; assay: Cell based AlphaLISA assay, mTOR kinase cellular assay: inhibition of p-P70S6K (T389) in MDA-MB-468 cells; settings: Homo sapiens, read-out: pIC50 for Inhibition of mTORC1 and mTORC2 Substarte Phosphorylation p-P70S6K-(T389) (converted)
How it was run: (§1)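 MDA-MB-468 cells treated with compound at 0.017-1,000 nM for two to four hours at 37° C, then lysed. Phospho-AKT1/2/3 S473, 4EBP1 T37/46 and P70S6K T389 quantified by AlphaLISA SureFire Ultra in duplicate; IC50 from normalized regression with control-based normalization.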

[2] = tested on: 4EBP1 (Thr37/46) phosphorylation (mTORC1) in MDA-MB-468 cells; assay: Cell based AlphaLISA assay, mTOR kinase cellular assay: inhibition of p-4E-BP1 (T37/46) in MDA-MB-468 cells; settings: Homo sapiens, read-out: pIC50 for Inhibition of mTORC1 and mTORC2 Substarte Phosphorylation p-4E-BP1-(T37/46) (converted)
How it was run: as §1

[3] = tested on: AKT1/2/3 (Ser473) phosphorylation (mTORC2) in MDA-MB-468 cells; assay: Cell based AlphaLISA assay, mTOR kinase cellular assay: inhibition of p-Akt (S473) in MDA-MB-468 cells; settings: Homo sapiens, read-out: pIC50 for Inhibition of mTORC1 and mTORC2 Substarte Phosphorylation p-AKT1/2/3-(S473) (converted)
How it was run: as §1

CO[C@H]1C[C@@H]2CC[C@@H](C)[C@@](O)(O2)C(=O)C(=O)N2CCCC[C@H]2C(=O)O[C@H]([C@H](C)C[C@@H]2CC[C@@H](OC(=O)N3CCc4nc(N5CCN(c6ncc(C(=O)N7CCN(c8ncc(C(=O)N9CCc%10cc(Cn%11nc(-c%12ccc%13oc(N)nc%13c%12)c%12c(N)ncnc%12%11)ccc%10C9)cn8)CC7)cn6)CC5)ncc4C3)[C@H](OC)C2)CC(=O)[C@H](C)/C=C(\C)[C@@H](O)[C@@H](OC)C(=O)[C@H](C)C[C@H](C)/C=C/C=C/C=C/1C [Example 62]
IC50 [1]: 0.001 to 0.01 µM
IC50 [2]: > 1 µM
IC50 [3]: > 1 µM

CO[C@H]1C[C@@H]2CC[C@@H](C)[C@@](O)(O2)C(=O)C(=O)N2CCCC[C@H]2C(=O)O[C@H]([C@H](C)C[C@@H]2CC[C@@H](OC(=O)NCc3cnc(N4CCN(C(=O)CCOCCN5CCN(c6ncc(C(=O)NCCOCCC(=O)NCCCCn7nc(-c8ccc9oc(N)nc9c8)c8c(N)ncnc87)cn6)CC5)CC4)nc3)[C@H](OC)C2)CC(=O)[C@H](C)/C=C(\C)[C@@H](O)[C@@H](OC)C(=O)[C@H](C)C[C@H](C)/C=C/C=C/C=C/1C [Example 63]
IC50 [1]: ≤ 0.001 µM
IC50 [2]: ≤ 0.00316 µM
IC50 [3]: ≤ 0.00316 µM

CO[C@H]1C[C@@H]2CC[C@@H](C)[C@@](O)(O2)C(=O)C(=O)N2CCCC[C@H]2C(=O)O[C@H]([C@H](C)C[C@@H]2CC[C@@H](OC(=O)NCc3cnc(N4CCN(C(=O)CCOCCN5CCN(c6ncc(C(=O)NCCOCCC(=O)N7CCc8cc(Cn9nc(-c%10ccc%11oc(N)nc%11c%10)c%10c(N)ncnc%109)ccc8C7)cn6)CC5)CC4)nc3)[C@H](OC)C2)CC(=O)[C@H](C)/C=C(\C)[C@@H](O)[C@@H](OC)C(=O)[C@H](C)C[C@H](C)/C=C/C=C/C=C/1C [Example 64]
IC50 [1]: ≤ 0.001 µM
IC50 [2]: ≤ 0.00316 µM
IC50 [3]: 0.00316 to 0.0316 µM

CO[C@H]1C[C@@H]2CC[C@@H](C)[C@@](O)(O2)C(=O)C(=O)N2CCCC[C@H]2C(=O)O[C@H]([C@H](C)C[C@@H]2CC[C@@H](OC(=O)NCc3cnc(N4CCN(C(=O)CCOCCN5CCN(c6ncc(C(=O)NCCOCCC(=O)N7CCc8cc(Cn9nc(-c%10ccc%11oc(N)nc%11c%10)c%10c(N)ncnc%109)ccc8C7)cn6)CC5)CC4)nc3)[C@H](OC)C2)C[C@@H](OC)[C@H](C)/C=C(\C)[C@@H](O)[C@@H](OC)C(=O)[C@H](C)C[C@H](C)/C=C/C=C/C=C/1C [Example 65]
IC50 [1]: ≤ 0.001 µM
IC50 [2]: ≤ 0.00316 µM
IC50 [3]: 0.0316 to 1 µM

CO[C@H]1C[C@@H]2CC[C@@H](C)[C@@](O)(O2)C(=O)C(=O)N2CCCC[C@H]2C(=O)O[C@H]([C@H](C)C[C@@H]2CC[C@@H](OC(=O)NCc3cnc(N4CCN(C(=O)CCOCCN5CCN(c6ncc(C(=O)NCCOCCC(=O)NCCCCn7nc(-c8cnc9[nH]ccc9c8)c8c(N)ncnc87)cn6)CC5)CC4)nc3)[C@H](OC)C2)CC(=O)[C@H](C)/C=C(\C)[C@@H](O)[C@@H](OC)C(=O)[C@H](C)C[C@H](C)/C=C/C=C/C=C/1C [Example 66]
IC50 [1]: 0.01 to 1 µM
IC50 [2]: 0.0316 to 1 µM
IC50 [3]: 0.00316 to 0.0316 µM

CO[C@H]1C[C@@H]2CC[C@@H](C)[C@@](O)(O2)C(=O)C(=O)N2CCCC[C@H]2C(=O)O[C@H]([C@H](C)C[C@@H]2CC[C@@H](OC(=O)NCCOCCC(=O)NCc3cnc(N4CCN(C(=O)CCOCCN5CCN(c6ncc(C(=O)N7CCc8cc(Cn9nc(-c%10ccc%11oc(N)nc%11c%10)c%10c(N)ncnc%109)ccc8C7)cn6)CC5)CC4)nc3)[C@H](OC)C2)CC(=O)[C@H](C)/C=C(\C)[C@@H](O)[C@@H](OC)C(=O)[C@H](C)C[C@H](C)/C=C/C=C/C=C/1C [Example 67]
IC50 [1]: 0.01 to 1 µM
IC50 [2]: 0.0316 to 1 µM
IC50 [3]: 0.0316 to 1 µM

CO[C@H]1C[C@@H]2CC[C@@H](C)[C@@](O)(O2)C(=O)C(=O)N2CCCC[C@H]2C(=O)O[C@H]([C@H](C)C[C@@H]2CC[C@@H](OC(=O)NCCOCCC(=O)NCc3cnc(N4CCN(C(=O)CCOCCN5CCN(c6ncc(C(=O)NCCCCn7nc(-c8cnc9[nH]ccc9c8)c8c(N)ncnc87)cn6)CC5)CC4)nc3)[C@H](OC)C2)CC(=O)[C@H](C)/C=C(\C)[C@@H](O)[C@@H](OC)C(=O)[C@H](C)C[C@H](C)/C=C/C=C/C=C/1C [Example 68]
IC50 [1]: ≤ 0.001 µM
IC50 [2]: ≤ 0.00316 µM
IC50 [3]: > 1 µM

CO[C@H]1C[C@@H]2CC[C@@H](C)[C@@](O)(O2)C(=O)C(=O)N2CCCC[C@H]2C(=O)O[C@H]([C@H](C)C[C@@H]2CC[C@@H](OC(=O)NCCOCCC(=O)NCc3cnc(N4CCN(C(=O)CCOCCN5CCN(c6ncc(C(=O)N7CCc8cc(Cn9nc(-c%10ccc%11oc(N)nc%11c%10)c%10c(N)ncnc%109)ccc8C7)cn6)CC5)CC4)nc3)[C@H](OC)C2)C[C@@H](O)[C@H](C)/C=C(\C)[C@@H](O)[C@@H](OC)C(=O)[C@H](C)C[C@H](C)/C=C/C=C/C=C/1C [Example 69]
IC50 [1]: ≤ 0.001 µM
IC50 [2]: ≤ 0.00316 µM
IC50 [3]: 0.00316 to 0.0316 µM

CO[C@H]1C[C@@H]2CC[C@@H](C)[C@@](O)(O2)C(=O)C(=O)N2CCCC[C@H]2C(=O)O[C@H]([C@H](C)C[C@@H]2CC[C@@H](OC(=O)NCCOCCC(=O)NCc3cnc(N4CCN(C(=O)CCOCCN5CCN(c6ncc(C(=O)N7CCc8cc(Cn9nc(-c%10ccc%11oc(N)nc%11c%10)c%10c(N)ncnc%109)ccc8C7)cn6)CC5)CC4)nc3)[C@H](OC)C2)C[C@@H](OC)[C@H](C)/C=C(\C)[C@@H](O)[C@@H](OC)C(=O)[C@H](C)C[C@H](C)/C=C/C=C/C=C/1C [Example 70]
IC50 [1]: ≤ 0.001 µM
IC50 [2]: ≤ 0.00316 µM
IC50 [3]: 0.0316 to 1 µM

CO[C@H]1C[C@@H]2CC[C@@H](C)[C@@](O)(O2)C(=O)C(=O)N2CCCC[C@H]2C(=O)O[C@H]([C@H](C)C[C@@H]2CC[C@@H](OC(=O)NCCOCCOCCOCCOCCOCCOCCOCCOCC(=O)N3CCc4cc(Cn5nc(-c6ccc7oc(N)nc7c6)c6c(N)ncnc65)ccc4C3)[C@H](OC)C2)CC(=O)[C@H](C)/C=C(\C)[C@@H](O)[C@@H](OC)C(=O)[C@H](C)C[C@H](C)/C=C/C=C/C=C/1C [Example 71]
IC50 [1]: ≤ 0.001 µM
IC50 [2]: ≤ 0.00316 µM
IC50 [3]: 0.00316 to 0.0316 µM

CO[C@H]1C[C@@H]2CC[C@@H](C)[C@@](O)(O2)C(=O)C(=O)N2CCCC[C@H]2C(=O)O[C@H]([C@H](C)C[C@@H]2CC[C@@H](OC(=O)NCc3cnc(N4CCN(C(=O)CN(C)CC(=O)NCCOCCOCCC(=O)NCCCCn5nc(-c6ccc7oc(N)nc7c6)c6c(N)ncnc65)CC4)nc3)[C@H](OC)C2)C[C@@H](OC)[C@H](C)/C=C(\C)[C@@H](O)[C@@H](OC)C(=O)[C@H](C)C[C@H](C)/C=C/C=C/C=C/1C [Example 104]
IC50 [1]: ≤ 0.001 µM
IC50 [2]: ≤ 0.00316 µM
IC50 [3]: > 1 µM

CO[C@H]1C[C@@H]2CC[C@@H](C)[C@@](O)(O2)C(=O)C(=O)N2CCCC[C@H]2C(=O)O[C@H]([C@H](C)C[C@@H]2CC[C@@H](OC(=O)N3CCc4nc(N5CCN(c6ncc(C(=O)NCCOCCOCCOCCOCCC(=O)N7CCc8cc(Cn9nc(-c%10ccc%11oc(N)nc%11c%10)c%10c(N)ncnc%109)ccc8C7)cn6)[C@@H](C(=O)O)C5)ncc4C3)[C@H](OC)C2)C[C@@H](OC)[C@H](C)/C=C(\C)[C@@H](O)[C@@H](OC)C(=O)[C@H](C)C[C@H](C)/C=C/C=C/C=C/1C [Example 105]
IC50 [1]: ≤ 0.001 µM
IC50 [2]: 0.00316 to 0.0316 µM
IC50 [3]: > 1 µM
